What was measured:
Test in all cases: radiometric filter-binding kinase assay, Kinase HotSpot
Conditions in all cases: compound 0.5 µM; ATP 10 µM
ABL1 (human) = ABL1 (human) (UniProt P00519)
ACVR1B (human) = ACVR1B (human) (UniProt P36896)
AURKA (human) = AURKA (human) (UniProt O14965)
AURKC (human) = AURKC (human) (UniProt Q9UQB9)
AXL (human) = AXL (human) (UniProt P30530)
CAMK2B (human) = CAMK2B (human) (UniProt Q13554)
CAMK2D (human) = CAMK2D (human) (UniProt Q13557)
CAMKK2 (human) = CAMKK2 (human) (UniProt Q96RR4)
CDK2 CCNE1 (human) = CDK2 CCNE1 (human) (UniProt P24941+P24864)
CHEK1 (human) = CHEK1 (human) (UniProt O14757)
CLK1 (human) = CLK1 (human) (UniProt P49759)
CSNK2A1 (human) = CSNK2A1 (human) (UniProt P68400)
DAPK2 (human) = DAPK2 (human) (UniProt Q9UIK4)
DYRK1A (human) = DYRK1A (human) (UniProt Q13627)
EGFR (human) = EGFR (human) (UniProt P00533)
EPHA4 (human) = EPHA4 (human) (UniProt P54764)
EPHA5 (human) = EPHA5 (human) (UniProt P54756)
EPHB4 (human) = EPHB4 (human) (UniProt P54760)
ERBB2 (human) = ERBB2 (human) (UniProt P04626)
FGFR2 (human) = FGFR2 (human) (UniProt P21802)
FRK (human) = FRK (human) (UniProt P42685)
[1] = target: JAK1 JH1 catalytic (human) (UniProt P23458)
JAK2 JH1 JH2 (human) = JAK2 JH1 JH2 (human) (UniProt O60674)
KIT (human) = KIT (human) (UniProt P10721)
LCK (human) = LCK (human) (UniProt P06239)
LIMK1 (human) = LIMK1 (human) (UniProt P53667)
MAP3K14 (human) = MAP3K14 (human) (UniProt Q99558)
MAP4K2 (human) = MAP4K2 (human) (UniProt Q12851)
MAPK14 (human) = MAPK14 (human) (UniProt Q16539)
MAPKAPK2 (human) = MAPKAPK2 (human) (UniProt P49137)
MKNK2 (human) = MKNK2 (human) (UniProt Q9HBH9)
NEK2 (human) = NEK2 (human) (UniProt P51955)
OXSR1 (human) = OXSR1 (human) (UniProt O95747)
PAK2 (human) = PAK2 (human) (UniProt Q13177)
PASK (human) = PASK (human) (UniProt Q96RG2)
PDGFRB (human) = PDGFRB (human) (UniProt P09619)
PLK1 (human) = PLK1 (human) (UniProt P53350)
RET (human) = RET (human) (UniProt P07949)
ROCK1 (human) = ROCK1 (human) (UniProt Q13464)
SRPK1 (human) = SRPK1 (human) (UniProt Q96SB4)
TTK (human) = TTK (human) (UniProt P33981)
TXK (human) = TXK (human) (UniProt P42681)

CSNK2A1 (human), sequence (P68400 whole entry, looked up): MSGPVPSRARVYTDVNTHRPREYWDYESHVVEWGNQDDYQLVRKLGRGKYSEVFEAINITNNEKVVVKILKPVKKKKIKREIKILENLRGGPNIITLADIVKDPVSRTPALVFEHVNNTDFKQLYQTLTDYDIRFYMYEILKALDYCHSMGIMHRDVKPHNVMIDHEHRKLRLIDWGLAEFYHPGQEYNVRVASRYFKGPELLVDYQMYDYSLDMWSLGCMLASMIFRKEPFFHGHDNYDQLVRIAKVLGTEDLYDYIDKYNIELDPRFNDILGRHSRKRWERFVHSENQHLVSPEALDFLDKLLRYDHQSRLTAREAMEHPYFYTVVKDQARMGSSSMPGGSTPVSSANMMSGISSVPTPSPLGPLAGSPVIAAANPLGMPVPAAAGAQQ
AURKC (human), sequence (Q9UQB9 whole entry, looked up): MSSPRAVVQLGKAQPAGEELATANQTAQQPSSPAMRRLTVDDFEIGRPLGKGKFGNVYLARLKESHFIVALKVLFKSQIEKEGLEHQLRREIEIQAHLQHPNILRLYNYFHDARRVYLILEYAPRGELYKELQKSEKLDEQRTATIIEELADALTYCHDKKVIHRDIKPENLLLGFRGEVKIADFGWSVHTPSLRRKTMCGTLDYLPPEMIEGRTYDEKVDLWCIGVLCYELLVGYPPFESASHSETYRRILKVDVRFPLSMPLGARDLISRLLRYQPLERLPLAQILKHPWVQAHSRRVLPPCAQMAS
PDGFRB (human), sequence (P09619 whole entry, looked up): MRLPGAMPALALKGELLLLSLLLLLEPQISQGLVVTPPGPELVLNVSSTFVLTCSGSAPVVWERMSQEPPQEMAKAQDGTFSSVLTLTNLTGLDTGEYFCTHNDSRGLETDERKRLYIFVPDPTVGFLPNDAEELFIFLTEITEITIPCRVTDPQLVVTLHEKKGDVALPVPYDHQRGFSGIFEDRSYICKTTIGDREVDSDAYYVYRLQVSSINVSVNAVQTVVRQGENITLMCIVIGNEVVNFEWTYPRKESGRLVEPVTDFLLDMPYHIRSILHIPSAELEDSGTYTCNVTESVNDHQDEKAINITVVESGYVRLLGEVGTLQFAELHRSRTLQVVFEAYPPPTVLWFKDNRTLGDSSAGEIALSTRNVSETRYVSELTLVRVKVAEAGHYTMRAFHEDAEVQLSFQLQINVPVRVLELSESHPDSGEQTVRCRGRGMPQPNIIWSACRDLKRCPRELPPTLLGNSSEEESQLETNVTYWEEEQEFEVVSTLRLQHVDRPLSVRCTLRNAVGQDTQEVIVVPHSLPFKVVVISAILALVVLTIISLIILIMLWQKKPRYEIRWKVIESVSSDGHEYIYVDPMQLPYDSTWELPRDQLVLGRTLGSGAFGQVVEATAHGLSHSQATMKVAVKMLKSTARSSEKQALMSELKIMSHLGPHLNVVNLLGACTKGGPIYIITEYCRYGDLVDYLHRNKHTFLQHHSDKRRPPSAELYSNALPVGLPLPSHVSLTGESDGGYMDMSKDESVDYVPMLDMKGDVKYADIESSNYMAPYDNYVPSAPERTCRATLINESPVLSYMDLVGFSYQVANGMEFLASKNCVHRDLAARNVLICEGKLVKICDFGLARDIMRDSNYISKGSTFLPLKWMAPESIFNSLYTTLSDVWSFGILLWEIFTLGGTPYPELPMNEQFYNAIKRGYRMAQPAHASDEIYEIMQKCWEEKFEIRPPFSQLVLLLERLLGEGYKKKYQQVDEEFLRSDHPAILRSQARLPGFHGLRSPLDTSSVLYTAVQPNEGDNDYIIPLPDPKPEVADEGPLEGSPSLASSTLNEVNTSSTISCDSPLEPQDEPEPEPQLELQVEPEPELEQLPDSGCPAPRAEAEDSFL
LIMK1 (human), sequence (P53667 whole entry, looked up): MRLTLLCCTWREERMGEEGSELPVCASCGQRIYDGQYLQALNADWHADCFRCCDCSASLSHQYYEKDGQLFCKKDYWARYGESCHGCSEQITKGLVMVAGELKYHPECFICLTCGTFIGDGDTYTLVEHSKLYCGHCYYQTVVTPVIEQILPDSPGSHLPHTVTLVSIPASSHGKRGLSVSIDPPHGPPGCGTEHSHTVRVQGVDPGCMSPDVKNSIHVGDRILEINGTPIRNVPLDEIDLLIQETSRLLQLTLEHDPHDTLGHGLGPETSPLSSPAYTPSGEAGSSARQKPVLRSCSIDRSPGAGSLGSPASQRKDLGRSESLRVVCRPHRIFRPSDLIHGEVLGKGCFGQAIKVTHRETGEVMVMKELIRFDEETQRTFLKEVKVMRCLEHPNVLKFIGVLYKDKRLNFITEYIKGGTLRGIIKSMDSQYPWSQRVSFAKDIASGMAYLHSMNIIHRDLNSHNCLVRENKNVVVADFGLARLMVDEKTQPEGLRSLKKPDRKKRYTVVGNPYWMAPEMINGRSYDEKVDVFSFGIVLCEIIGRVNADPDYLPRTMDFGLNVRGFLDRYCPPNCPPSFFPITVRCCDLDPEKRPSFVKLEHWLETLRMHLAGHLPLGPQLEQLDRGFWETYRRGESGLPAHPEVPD
CHEK1 (human), sequence (O14757 whole entry, looked up): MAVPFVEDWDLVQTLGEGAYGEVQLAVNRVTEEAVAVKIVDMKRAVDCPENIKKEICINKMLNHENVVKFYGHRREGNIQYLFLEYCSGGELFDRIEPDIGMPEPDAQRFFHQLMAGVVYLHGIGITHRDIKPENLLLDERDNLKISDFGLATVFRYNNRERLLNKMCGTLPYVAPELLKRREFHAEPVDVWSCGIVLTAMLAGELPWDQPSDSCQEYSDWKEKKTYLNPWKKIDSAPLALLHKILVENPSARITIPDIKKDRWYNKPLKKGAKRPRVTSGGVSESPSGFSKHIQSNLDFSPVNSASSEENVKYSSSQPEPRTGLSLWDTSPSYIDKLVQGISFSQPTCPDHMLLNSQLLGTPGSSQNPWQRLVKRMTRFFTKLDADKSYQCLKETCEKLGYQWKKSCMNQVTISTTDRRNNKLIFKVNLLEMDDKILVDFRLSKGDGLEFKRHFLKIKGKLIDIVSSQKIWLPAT
NEK2 (human), sequence (P51955 whole entry, looked up): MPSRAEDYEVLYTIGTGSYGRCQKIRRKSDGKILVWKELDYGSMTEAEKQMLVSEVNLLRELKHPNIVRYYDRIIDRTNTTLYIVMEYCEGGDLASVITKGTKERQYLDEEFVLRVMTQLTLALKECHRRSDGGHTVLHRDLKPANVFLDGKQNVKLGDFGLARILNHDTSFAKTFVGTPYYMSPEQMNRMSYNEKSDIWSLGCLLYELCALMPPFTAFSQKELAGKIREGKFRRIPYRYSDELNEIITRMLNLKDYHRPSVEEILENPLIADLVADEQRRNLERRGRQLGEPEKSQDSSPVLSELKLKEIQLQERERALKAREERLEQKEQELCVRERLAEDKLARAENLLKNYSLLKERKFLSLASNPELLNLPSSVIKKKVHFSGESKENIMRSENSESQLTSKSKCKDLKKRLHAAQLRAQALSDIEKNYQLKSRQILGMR
PLK1 (human), sequence (P53350 whole entry, looked up): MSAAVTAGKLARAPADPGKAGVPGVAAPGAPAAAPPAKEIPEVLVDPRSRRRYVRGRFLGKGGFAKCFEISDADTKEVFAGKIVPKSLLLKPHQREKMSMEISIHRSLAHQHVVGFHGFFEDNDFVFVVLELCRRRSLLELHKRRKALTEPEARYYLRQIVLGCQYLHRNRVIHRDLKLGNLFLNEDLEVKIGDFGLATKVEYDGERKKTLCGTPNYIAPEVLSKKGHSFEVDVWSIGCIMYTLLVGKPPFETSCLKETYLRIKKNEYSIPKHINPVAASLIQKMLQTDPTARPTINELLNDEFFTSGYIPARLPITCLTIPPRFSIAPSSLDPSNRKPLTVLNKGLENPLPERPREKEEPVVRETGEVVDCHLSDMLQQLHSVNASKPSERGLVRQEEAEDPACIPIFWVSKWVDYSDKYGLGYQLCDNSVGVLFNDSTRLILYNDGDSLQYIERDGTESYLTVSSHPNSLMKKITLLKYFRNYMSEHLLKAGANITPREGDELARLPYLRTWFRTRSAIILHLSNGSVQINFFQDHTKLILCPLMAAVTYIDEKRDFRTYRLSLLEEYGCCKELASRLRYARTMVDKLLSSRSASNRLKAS
LCK (human), sequence (P06239 whole entry, looked up): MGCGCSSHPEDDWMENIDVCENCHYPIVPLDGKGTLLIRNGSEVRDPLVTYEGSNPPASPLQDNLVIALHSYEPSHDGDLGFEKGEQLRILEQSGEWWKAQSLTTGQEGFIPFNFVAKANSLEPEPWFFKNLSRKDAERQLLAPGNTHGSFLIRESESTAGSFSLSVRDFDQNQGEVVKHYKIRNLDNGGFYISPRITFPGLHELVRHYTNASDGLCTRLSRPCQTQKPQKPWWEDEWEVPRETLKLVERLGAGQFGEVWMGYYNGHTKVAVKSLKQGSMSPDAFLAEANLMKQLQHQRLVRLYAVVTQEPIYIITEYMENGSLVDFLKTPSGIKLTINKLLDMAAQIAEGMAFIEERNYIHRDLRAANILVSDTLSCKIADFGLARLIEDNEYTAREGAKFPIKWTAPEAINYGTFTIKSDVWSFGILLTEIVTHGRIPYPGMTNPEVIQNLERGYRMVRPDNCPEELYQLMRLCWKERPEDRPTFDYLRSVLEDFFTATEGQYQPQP
FRK (human), sequence (P42685 whole entry, looked up): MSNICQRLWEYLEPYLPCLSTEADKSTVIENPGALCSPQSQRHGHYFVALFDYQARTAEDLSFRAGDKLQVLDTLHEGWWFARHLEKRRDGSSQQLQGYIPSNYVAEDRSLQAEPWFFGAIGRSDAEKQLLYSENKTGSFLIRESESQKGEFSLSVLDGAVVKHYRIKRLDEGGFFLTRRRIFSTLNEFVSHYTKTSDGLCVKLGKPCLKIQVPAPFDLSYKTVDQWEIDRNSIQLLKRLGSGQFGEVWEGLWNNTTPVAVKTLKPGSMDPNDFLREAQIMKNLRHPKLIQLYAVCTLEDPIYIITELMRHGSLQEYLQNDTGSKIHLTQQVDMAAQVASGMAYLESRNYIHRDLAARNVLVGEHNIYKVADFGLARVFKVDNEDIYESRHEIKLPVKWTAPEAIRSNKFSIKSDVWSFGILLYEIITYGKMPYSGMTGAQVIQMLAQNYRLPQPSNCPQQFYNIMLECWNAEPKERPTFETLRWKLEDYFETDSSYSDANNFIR

## c1ccc2c(-c3ccncc3)c[nH]c2c1
ABL1 (human)
  residual activity: 98.8%
ACVR1B (human)
  residual activity: 98.8%
AURKA (human)
  residual activity: 78%
AURKC (human)
  residual activity: 93.1%
AXL (human)
  residual activity: 99.8%
CAMK2B (human)
  residual activity: 90.5%
CAMK2D (human)
  residual activity: 103%
CAMKK2 (human)
  residual activity: 113%
CDK2 CCNE1 (human)
  residual activity: 91.7%
CHEK1 (human)
  residual activity: 104%
CLK1 (human)
  residual activity: 105%
CSNK2A1 (human)
  residual activity: 95%
DAPK2 (human)
  residual activity: 108%
DYRK1A (human)
  residual activity: 77.6%
EGFR (human)
  residual activity: 97.3%
EPHA4 (human)
  residual activity: 108%
EPHA5 (human)
  residual activity: 99.4%
EPHB4 (human)
  residual activity: 89.7%
ERBB2 (human)
  residual activity: 95.6%
FGFR2 (human)
  residual activity: 105%
FRK (human)
  residual activity: 106%
[1]
  residual activity: 109%
JAK2 JH1 JH2 (human)
  residual activity: 93.8%
KIT (human)
  residual activity: 93.2%
LCK (human)
  residual activity: 102%
LIMK1 (human)
  residual activity: 92%
MAP3K14 (human)
  residual activity: 112%
MAP4K2 (human)
  residual activity: 101%
MAPK14 (human)
  residual activity: 104%
MAPKAPK2 (human)
  residual activity: 101%
MKNK2 (human)
  residual activity: 39.2%
NEK2 (human)
  residual activity: 106%
OXSR1 (human)
  residual activity: 97.2%
PAK2 (human)
  residual activity: 84%
PASK (human)
  residual activity: 101%
PDGFRB (human)
  residual activity: 105%
PLK1 (human)
  residual activity: 102%
RET (human)
  residual activity: 97.3%
ROCK1 (human)
  residual activity: 84.2%
SRPK1 (human)
  residual activity: 108%
TTK (human)
  residual activity: 112%
TXK (human)
  residual activity: 104%

Reference: the kinase profiling compilation of Christmann-Franck et al. (2016)
